The record followed here is ChEMBL document CHEMBL3352768, “Synthesis and PGE₂ production inhibition of s-triazine derivatives as a novel scaffold in RAW 264.7 macrophage cells” (Bioorg Med Chem Lett, 2014).

The subject of data set [1] is RAW264.7. Nature of the data set: Inhibition of PGE2 production in LPS-induced mouse RAW264.7 cells at 1 uM. It is filed as functional.
Data set [2] relates to RAW264.7. Nature of the data set: Cytotoxicity against mouse RAW264.7 cells assessed as reduction in cell viability by MTT assay. It is filed as cell-based. Background: Tetrazolium assays rely on reduction of a dye to a coloured formazan, in cell work by metabolically active cells.
Data set [3] relates to RAW264.7. Nature of the data set: Inhibition of PGE2 production in LPS-induced mouse RAW264.7 cells at 10 uM. It is filed as functional.
Data set [4] has as its system RAW264.7. Put plainly: Inhibition of PGE2 production in LPS-induced mouse RAW264.7 cells. It is filed as functional, cell-based.
In data set [5] the target is T1, Prostaglandin G/H synthase 2 (Homo sapiens) (UniProt P35354).
T1 sequence (whole entry): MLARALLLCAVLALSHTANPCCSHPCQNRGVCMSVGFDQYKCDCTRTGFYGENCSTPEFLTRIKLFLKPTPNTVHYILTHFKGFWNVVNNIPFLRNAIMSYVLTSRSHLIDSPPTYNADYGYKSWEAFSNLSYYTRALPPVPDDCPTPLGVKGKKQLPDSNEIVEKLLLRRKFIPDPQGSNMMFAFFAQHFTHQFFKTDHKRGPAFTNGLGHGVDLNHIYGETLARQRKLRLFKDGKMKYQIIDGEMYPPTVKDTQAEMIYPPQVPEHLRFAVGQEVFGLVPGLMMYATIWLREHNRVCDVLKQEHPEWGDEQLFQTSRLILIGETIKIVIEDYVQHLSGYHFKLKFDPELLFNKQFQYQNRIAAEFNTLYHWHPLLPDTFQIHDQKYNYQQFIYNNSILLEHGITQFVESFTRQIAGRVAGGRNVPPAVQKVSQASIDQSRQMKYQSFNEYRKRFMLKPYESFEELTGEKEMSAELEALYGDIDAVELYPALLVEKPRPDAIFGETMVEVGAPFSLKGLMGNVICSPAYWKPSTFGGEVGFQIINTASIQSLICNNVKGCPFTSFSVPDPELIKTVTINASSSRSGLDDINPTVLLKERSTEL
Put plainly: Inhibition of human recombinant COX2 in cell-free system at 10 uM by enzyme immunoassay.

Data set [6] addresses T2, Prostaglandin G/H synthase 2 (Homo sapiens, UniProt P35354).
T2 sequence (P35354 whole entry): T1 sequence (whole entry)
Put plainly: Inhibition of human recombinant COX2 in cell-free system by enzyme immunoassay.

Data set [7] relates to RAW264.7. Put plainly: Inhibition of PGE2 production in LPS-induced mouse RAW264.7 cells at 3 uM. In kind it is functional.

Molecules are shown by their SMILES. Some results are limits rather than exact numbers.

Broadly, the inhibition is the share of the control response that was lost under treatment. In the data set on RAW264.7 [1], `Cc1nc(Nc2ccc(C(C)C)cc2)nc(SC(C(N)=O)c2ccccc2)n1` (stereo not given) yielded an inhibition at 1 µM of 26.5%. The Activity with RAW264.7 [2] was less than 10 µM.
Turning to `COC(=O)C(Sc1nc(Cl)nc(Nc2ccc(Oc3ccccc3)cc2)n1)c1ccccc1` (stereo not given), in the data set with RAW264.7 [3], the inhibition at 10 µM turned out to be 85.8%. Moreover, the Activity in the data set on RAW264.7 [2] was more than 10 µM.
`COC(=O)C(Sc1nc(C)nc(Nc2ccc(C(C)C)cc2)n1)c1ccccc1` (stereo not given) registered an inhibition at 10 µM in the data set on RAW264.7 [3] of 85.7%. Besides, in the data set with RAW264.7 [2], the Activity is more than 10 µM.
In the data set with RAW264.7 [3], `COC(=O)C(Sc1nc(Cl)nc(Nc2ccc(C(C)C)cc2)n1)c1cccc2ccccc12` (stereo not given) had an inhibition at 10 µM of 88.7%. In the data set with RAW264.7 [2], the Activity was more than 10 µM.
As to `CCOC(=O)C(Sc1nc(Cl)nc(Nc2ccc(Cc3ccccc3)cc2)n1)c1cccc2ccccc12` (stereo not given), in the data set with RAW264.7 [3], the inhibition at 10 µM stood at 72.6%. The Activity in the data set on RAW264.7 [2] is more than 10 µM.
Usually IC50 stands for the point on the concentration scale where inhibition reaches its midpoint. Turning to `COC(=O)C(Sc1nc(Cl)nc(Nc2ccc(C(C)C)cc2)n1)c1ccccc1` (stereo not given), the inhibition at 10 µM in the data set on RAW264.7 [3] came out at 91.8%. Moreover, in the data set with RAW264.7 [4], it took 5.76 µM to reach half-maximal inhibition (IC50). Besides, the inhibition in data set [5] came out at 31.8%. Moreover, the Activity in the data set with RAW264.7 [2] is more than 10 µM.
In the case of `COC(=O)C(Sc1nc(Cl)nc(Nc2ccc(Cc3ccccc3)cc2)n1)c1ccccc1` (stereo not given), in the data set on RAW264.7 [3], at 10 µM the inhibition was 90.8%. In the data set on RAW264.7 [4], the IC50 turned out to be 5.52 µM. In addition, the inhibition in data set [5] was 0%. Besides, the Activity in the data set on RAW264.7 [2] is more than 10 µM.
In the case of `CC(C)c1ccc2c(c1)c(SC(C)(C)C)c(CC(C)(C)C(=O)O)n2Cc1ccc(Cl)cc1`, the concentration for half-maximal inhibition (IC50) in data set [6] was 58 µM.
In the data set with RAW264.7 [3], `COC(=O)C(Sc1nc(Cl)nc(Nc2ccc(-c3ccccc3)cc2)n1)c1ccccc1` (stereo not given) gave an inhibition at 10 µM of 82.7%. Moreover, the Activity with RAW264.7 [2] is more than 10 µM.
As for `COC(=O)C(Sc1nc(Cl)nc(Nc2ccc(Oc3ccccc3)cc2)n1)c1cccc2ccccc12` (stereo not given), the inhibition at 10 µM in the data set on RAW264.7 [3] worked out at 72.5%. Further, the Activity in the data set with RAW264.7 [2] was more than 10 µM.
`CCOC(=O)C(Sc1nc(Cl)nc(Nc2ccc(C3CCCCC3)cc2)n1)c1cccc2ccccc12` (stereo not given) yielded an inhibition at 10 µM in the data set on RAW264.7 [3] of 43.7%. Moreover, the Activity in the data set with RAW264.7 [2] is more than 10 µM.
For the molecule `O=C(O)C(Sc1nc(Cl)nc(Nc2ccc(-c3ccccc3)cc2)n1)c1cccc2ccccc12` (stereo not given), the inhibition at 10 µM with RAW264.7 [3] was found to be 7.77%. Further, in the data set with RAW264.7 [2], the Activity was more than 10 µM.
With `CS(=O)(=O)Nc1ccc([N+](=O)[O-])cc1OC1CCCCC1` [NS-398], in the data set on RAW264.7 [7], 3 µM produced 99.4% inhibition.
For the molecule `CCOC(=O)C(Sc1nc(Cl)nc(Nc2ccc(-c3ccccc3)cc2)n1)c1cccc2ccccc12` (stereo not given), 10 µM produced 78.6% inhibition in the data set with RAW264.7 [3]. Further, in the data set on RAW264.7 [2], the Activity was more than 10 µM.
